According to patent US9566265B2, “Carbazole compounds and therapeutic uses of the compounds” (Incuron, LLC, priority 2008, dated 2017):

Columns and labels:
p53 = p53 activation assay, p53 responsive luciferase reporter cell line; format: cell-based, human; settings: Homo sapiens, 16 h, HT1080-L or RCC45ConALuc reporter cells, 16 h; read-out: EC50 value (p53 activation)
Protocol: The potency of a present carbazole compound is determined by measuring an ability of the compound to inhibit NF-κB activity or to activate p53. […] Theoretically, such assays of the dose-response effect of activator compounds can be described as a sigmoidal curve expressing a degree of activation as a function of concentration. The curve also theoretically passes through a point at which the concentration is sufficient to increase activity to a level that is 50% that of the difference between a baseline and the maximal activity in the assay. […] Determination of an EC50 value is made using conventional biochemical (acellular) assay techniques or cell-based assay techniques.
The potency of a carbazole compound is determined by measuring an ability of the compound to activate p53.
The p53 activation assay for determination of the EC50 value was performed as follows:
HT1080-L (human fibrosarcoma cells with ConALuc reporter)
RCC45ConALuc (human renal cell carcinoma cell line with ConALuc reporter)
1. Two types of standard cells were used, either HT1080-L or RCC45ConALuc cells. Both cell lines stably express a p53 responsive luciferase reporter construct.
2. HT1080-L cells were grown in DMEM medium containing 10% FBS. RCC45ConALuc cells were grown in RPMI medium containing 10% FBS (Pen/Strep can be added to a final concentration of 1%, if desired). Both cell lines were grown in a humidified incubator at 37° C. with 5% CO2. For normal culturing, both cell lines were split using 1× trypsin-EDTA at a ratio of 1:20 for HT1080-L and 1:5 for RCC45ConALuc cells every 3-4 days (when cells are 80-90% confluent).
3. A day before the experiment, the cells are trypsinized for about 5 minutes in 1× tripsin/EDTA solution in 37° C. incubator and plated in 96 well plates. HT1080-L cells were seeded at a density of 1×10^4/well in standard DMEM medium in a volume of 50 μl. RCC45ConALuc were seeded at a density of 2×10^4/well in the volume of 50 uL in standard RPMI medium.
4. The next day, various carbazole compounds were prepared by dilution of stock solutions in standard DMEM medium such that the cells were treated with the final chemical concentrations in Table 1 below. Stock solutions were made up in DMSO. Typically, chemicals were made up as 20 mM stock solutions.
5. Each tested compound used two rows of a 96-well plate, thus four compounds (e.g., W, X, Y, Z) were tested in one plate simultaneously. In addition to test compounds, each plate included positive and negative controls. As positive control, 9aa was used at a dose of 3 μM. As a negative control, DMSO was used in final concentration 0.1%.
1. Dilutions of chemicals added to the plate were made up as 2× concentrations in standard DMEM and added to corresponding well in a volume of 50 μl.
2. Chemicals were diluted in standard DMEM by two time serial dilutions starting from 40 μM (2× of highest concentration, e.g., 20 μM). For one cell line, the minimum volume was 125 μL of 2× working solution of chemical of each concentration in standard DMEM.
4. Sixteen hours following compound addition, all wells with the highest concentrations of compounds are checked microscopically for the presence of toxic effect, because death of cells caused by compounds may not allow detecting luciferase activity. If cytotoxocity is evident, other doses of the same compounds were checked for the presence of toxicity. The lowest dose causing toxic effect was recorded.
5. After microscopic examination, 15 μl of Bright Glo luciferase assay system were added to each well and after 5 min incubation at RT, the plates were read on a 96 well plate luminometer with a measurement time of 0.1 sec. A shaking step was included before measurement.
6. The folds of luciferase activation for each concentration of each chemical were calculated by dividing the detected luciferase activity at each chemical concentration by the average of the luciferase activity for the DMSO control on the same plate.

Topo II [1] = assay: Topo II inhibition in cells (Table I); format: cell-based
ATM/ATR = ATM/ATR activation (Table I); format: cell-based
Chk1/2 = Chk1/2 phosphorylation (Table I); format: cell-based
[2] = system: thirteen cancer cell lines; assay: relative cell survival of cancer cell lines, methylene blue staining (FIG. 11); format: cell-based; settings: 24 hours treatment, then compound-free medium
Protocol: FIG. 11 contains plots of concentration of Compound 100 (μM) vs. relative cell survival for thirteen cancer cell lines showing that a present carbazole compound is an effective agent against numerous types of cancer;
Each of the cell lines presented in FIG. 11 was seeded into 96 well plates. The next day, cells were treated with a range of concentrations of Compound 100. Treatment occurred for 24 hours, at which time compound-filled medium was replaced with compound-free medium and cells were allowed to grow until the control wells, which were treated with only vehicle control (DMSO), reached a monolayer (typically within 48 hours). Cells then were fixed and stained with 0.5% methylene blue in 50% methanol. The dye was eluted with 1% SDS and the absorbance measured at 650 nm. Data is presented as the absorbance at 650 nm versus the concentration of Compound 100.

γH2AX = γH2AX staining (Table I); format: cell-based
Topo II [3] = assay: Topo II inhibition in vitro (Table I); format: biochemical

Compound: CCN(CC)CCn1c2ccc([N+](=O)[O-])cc2c2cc([N+](=O)[O-])ccc21 [Compound 100]
- EC50 (p53): 1.3 µM
- Topo II inhibition in cells (Topo II [1]): no
- ATM/ATR activation (ATM/ATR): no
- Chk1/2 phospho (Chk1/2): no
- Ames test (Ames test): negative
- anti-cancer activity against tested cancer cells [2]: significant anti-cancer activity
- γH2AX staining (γH2AX): no
- Topo II inhibition in vitro (Topo II [3]): ligation
